The test system of one test is KURAMOCHI
Kind of test: drug sensitivity score (DSS2) on cancer cell count; higher = more sensitive; extreme values may be limits of the assay. The following applies: 72 h. The gist of the method:
(§1)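 Ovarian cancer cells were grown alone or in 1:1 direct co-culture with lung or skin fibroblasts. They were plated onto 384-well plates pre-spotted acoustically with 528 approved and investigational compounds at 5 concentrations, then treated for 72 h. Cells were fixed, immunostained for CK8/18 with Hoechst, and imaged at 10× (4 fields) to count cancer cells. A drug sensitivity score (DSS2) was derived in Breeze from 4-parameter logistic fits, with screen quality checked by Z'.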

A further test deals with OVCAR8. The test is described as above. Particulars: 72 h. The gist of the method: as §1
Setting [1] is: co-cultured fibroblast: BJHTERT.
The mark [2] stands for this setting: co-cultured fibroblast: none (monoculture).

`CCC1(c2ccc(N)cc2)CCC(=O)NC1=O` (stereo not drawn) [Aminoglutethimide]: the drug sensitivity score stood at 5.8 DSS in the test with KURAMOCHI (setting [1]); 0 DSS in the test on KURAMOCHI (co-cultured fibroblast: WI38); 0 DSS in the test with KURAMOCHI (setting [2]); 0 DSS with OVCAR8 (setting [1]); 0.4 DSS with OVCAR8 (co-cultured fibroblast: WI38); 0 DSS in the test on OVCAR8 (setting [2]).
In the case of `C=CC(=O)Nc1cc2c(Nc3ccc(F)c(Cl)c3)ncnc2cc1OCCCN1CCOCC1` [Canertinib], the drug sensitivity score in the test on KURAMOCHI (setting [1]) turned out to be 9.4 DSS; with KURAMOCHI (co-cultured fibroblast: WI38) it was 9.2 DSS; with KURAMOCHI (setting [2]) it was 24.2 DSS; with OVCAR8 (setting [1]), 9.6 DSS; with OVCAR8 (co-cultured fibroblast: WI38), 8.3 DSS; in the test on OVCAR8 (setting [2]), 9.4 DSS.
In the case of `CCCCCOC(=O)Nc1nc(=O)n([C@@H]2O[C@H](C)[C@@H](O)[C@H]2O)cc1F` [Capecitabine], the drug sensitivity score came out at 3.3 DSS in the test on KURAMOCHI (setting [1]); 0 DSS with KURAMOCHI (co-cultured fibroblast: WI38); 0 DSS in the test with KURAMOCHI (setting [2]); 0 DSS in the test with OVCAR8 (setting [1]); 2.7 DSS in the test with OVCAR8 (co-cultured fibroblast: WI38); 1.2 DSS in the test on OVCAR8 (setting [2]).
For `CNC(=O)CN1CCC(Oc2cc3c(Nc4cccc(Cl)c4F)ncnc3cc2OC)CC1` [Sapitinib], the drug sensitivity score came to 2.3 DSS in the test with KURAMOCHI (setting [1]); 0 DSS in the test on KURAMOCHI (co-cultured fibroblast: WI38); 0 DSS in the test with KURAMOCHI (setting [2]); 1.7 DSS in the test on OVCAR8 (setting [1]); 1 DSS in the test with OVCAR8 (co-cultured fibroblast: WI38); 1.7 DSS in the test on OVCAR8 (setting [2]).
For `COC(=O)c1ccc([C@H]2c3[nH]c4ccccc4c3C[C@H](C(=O)OC)N2C(=O)CCl)cc1` [RSL3], the drug sensitivity score amounted to 0 DSS with KURAMOCHI (setting [1]); 0 DSS in the test with KURAMOCHI (co-cultured fibroblast: WI38); 2.5 DSS in the test with KURAMOCHI (setting [2]); 0 DSS with OVCAR8 (setting [1]); 0 DSS in the test on OVCAR8 (co-cultured fibroblast: WI38); 0 DSS in the test with OVCAR8 (setting [2]).
Take `Cc1nc(NC(=O)N2CCC[C@H]2C(N)=O)sc1-c1ccnc(C(C)(C)C(F)(F)F)c1` [Alpelisib]: the drug sensitivity score with KURAMOCHI (setting [1]) is 0 DSS; in the test on KURAMOCHI (co-cultured fibroblast: WI38), 0 DSS; with KURAMOCHI (setting [2]), 0 DSS; with OVCAR8 (setting [1]), 0 DSS; in the test on OVCAR8 (co-cultured fibroblast: WI38), 0 DSS; in the test on OVCAR8 (setting [2]), 0.4 DSS.
Take `NC(=O)NO` [Hydroxyurea]: the drug sensitivity score stood at 5.9 DSS in the test on KURAMOCHI (setting [1]); 7.3 DSS in the test with KURAMOCHI (co-cultured fibroblast: WI38); 6.3 DSS in the test with KURAMOCHI (setting [2]); 1.8 DSS with OVCAR8 (setting [1]); 7.3 DSS in the test on OVCAR8 (co-cultured fibroblast: WI38); 7.7 DSS in the test with OVCAR8 (setting [2]).
As to `CNc1nc(Nc2cn(C(C)(C)C#N)nc2C)ncc1C(F)(F)F` [GNE-0877], the drug sensitivity score with KURAMOCHI (setting [1]) came to 0 DSS; in the test on KURAMOCHI (co-cultured fibroblast: WI38) it was 0 DSS; in the test on KURAMOCHI (setting [2]) it was 0 DSS; in the test on OVCAR8 (setting [1]), 0 DSS; in the test with OVCAR8 (co-cultured fibroblast: WI38), 1.8 DSS; in the test with OVCAR8 (setting [2]), 0 DSS.
With `CC(C)C[C@H](NC(=O)[C@H](Cc1ccccc1)NC(=O)c1cnccn1)B(O)O` [Bortezomib], the drug sensitivity score came out at 11.5 DSS in the test on KURAMOCHI (setting [1]); 25.6 DSS in the test on KURAMOCHI (co-cultured fibroblast: WI38); 15.7 DSS with KURAMOCHI (setting [2]); 17.3 DSS in the test with OVCAR8 (setting [1]); 27.3 DSS in the test on OVCAR8 (co-cultured fibroblast: WI38); 26 DSS in the test on OVCAR8 (setting [2]).
With `Cn1ncc(Cl)c1-c1cc(C(=O)N[C@H](CN)Cc2cccc(F)c2)sc1Cl` [Afuresertib], the drug sensitivity score in the test with KURAMOCHI (setting [1]) was 1.1 DSS; with KURAMOCHI (co-cultured fibroblast: WI38) it was 0 DSS; with KURAMOCHI (setting [2]) it was 0 DSS; in the test with OVCAR8 (setting [1]), 0.3 DSS; in the test on OVCAR8 (co-cultured fibroblast: WI38) it was 0 DSS; with OVCAR8 (setting [2]), 0 DSS.
Take `O=c1ncn2nc(Sc3ccc(F)cc3F)ccc2c1-c1c(Cl)cccc1Cl` [Neflamapimod]: the drug sensitivity score in the test with KURAMOCHI (setting [1]) is 9.1 DSS; in the test on KURAMOCHI (co-cultured fibroblast: WI38), 0.7 DSS; in the test with KURAMOCHI (setting [2]), 14.9 DSS; in the test on OVCAR8 (setting [1]), 0 DSS; in the test with OVCAR8 (co-cultured fibroblast: WI38) it was 0 DSS; in the test with OVCAR8 (setting [2]), 0.3 DSS.
Take `Nc1nc2cc(-c3ccc4ncc(C(=O)N5CCOCC5)n4c3)ccc2o1` [Serabelisib]: the drug sensitivity score in the test with KURAMOCHI (setting [1]) was 3.3 DSS; with KURAMOCHI (co-cultured fibroblast: WI38), 0.4 DSS; in the test on KURAMOCHI (setting [2]), 3.1 DSS; in the test with OVCAR8 (setting [1]), 0.8 DSS; in the test with OVCAR8 (co-cultured fibroblast: WI38), 0 DSS; with OVCAR8 (setting [2]) it was 0 DSS.
Consider `c1cn2cc(-c3ccc4cn[nH]c4c3)nc(Nc3ccc(N4CCOCC4)cc3)c2n1` [Entospletinib], for which the drug sensitivity score with KURAMOCHI (setting [1]) amounted to 0 DSS; in the test on KURAMOCHI (co-cultured fibroblast: WI38), 1.4 DSS; in the test on KURAMOCHI (setting [2]) it was 0 DSS; with OVCAR8 (setting [1]), 1.2 DSS; in the test on OVCAR8 (co-cultured fibroblast: WI38), 0 DSS; with OVCAR8 (setting [2]), 0 DSS.
